“Also recorded” adds a separate entry of the source.
Experiments:
Assay type in all cases: cell-based, human
[1] = test system: interferon production in THP1 cells; test: Interferon reporter assay in THP1 cells (secreted luciferase); conditions: 50 µM; THP1 cells, 1 µM decitabine
Method: Culture Collection ( AT CC); THP1-Dual and THP1- Dual KO-TREX1 cells were from InvivoGen. All cell lines were maintained at 37 °C and 5% CO2 and validated and tested for mycoplasma. All plasmids and affinity reagents are described in Supplementary Tables 4-5 , respectively and available from Addgene at https://www.addgene.org/browse/article/28243724/. […]
Interferon reporter assay in THP1 cells
The type I interferon response was evaluated using THP1 -Dual and THP1-Dual KO-TREX1 cells (InvivoGen), which secrete a Lucia luciferase reporter gene under control of an interferon- responsive promoter. THP1-Dual KO-TREX1 cell were generated by stable biallelic knock-out of the TREX1 gene. Cell were treated with a dose titration of test compound in the presence of 1 µM 5- aza-2ʹ-deoxycytidine (decitabine, Sigma, #189825), which de- represses LINE-1121. Type 1 Interferon and cell viability were assessed after five days of treatment. QUANTI-LUC solution containing stabilizer was added to the cell supernatant and luminescence was measured on a p la t e reader, and cells were assessed for cell viability using CellTiter-Glo (Promega, #G9683) according to the manufacturer’s instructions.
LINE-1 dual luciferase retrotransposition assay
To assess the potency of inhibiting LINE-1 retrotransposon, a stable clonal dual luciferase L1 reporter cell line was generated and reported as described130,133 in the HeLa Tet-On 3G cell line (Takara, ). SB100x161 was used to integrate pRT006.2, a vector similar to pYX056 130 , which contains a bi-directional Tet-On promoter expressing both control Renilla luciferase and LINE-1 ORFeus-Hs Firefly luciferase antisense intron (AI) r epor t er 79,162. A single cell clone was selected with the highest doxycycline-induced luciferase signal vs baseline. Cells were mixed with compounds and induced for reporter expression with 500 ng/mL doxycycline (Sigma, #D9891) for 72 hours. Luminescence was measured using the Dual-Glo Luciferase Assay System (Promega, #E2940) following the manufacturer’s instructions, and the ratio of Firefly to Renilla Luciferase activity was used to measure […]
Telomerase activity assay
The human telomerase assay was performed with telomerase in MCF- 7 cell lysates using the Telo TAGGG Telomerase PCR ELISAplus kit (Roche). Test compounds (NTPs) were serially diluted in water, mixed with 0.2 µg of M CF- 7 lysate, and pre- incubated at room temperature for 15 minutes. Then the reaction was carried out for 30 minutes, amplified using PCR, and visualized colorimetrically per t he manufacturer’s instructions.
(§1) Cells were lysed in ice cold RIPA buffer containing 1x protease inhibitor tablet (Thermo), centrifuged for 10 minutes, and clarified lysates were quantified by BCA assay. […]

[2] = test system: cytosolic RNA:DNA hybrids in L1-transfected HeLa and U2-OS cells; test: LINE-1 and RNA:DNA hybrid immunofluorescence; conditions: 50 µM, added at the time of transfection, 24 h
Method: Constructs all include C-terminal 3C-3xFlag tag on ORF2p and are synthetic ORFeus-Hs[63] sequence except where L1RP is indicated (L1 retinitis pigmentosa locus, AF148856, pLD564[17]). Cells were fixed in methanol and stained 24 h post transfection with the indicated constructs. Images are representative from 4 independent experiments. D4T RTI treatment is 50 µM, added at the time of transfection.
Culture Collection ( AT CC); THP1-Dual and THP1- Dual KO-TREX1 cells were from InvivoGen. All cell lines were maintained at 37 °C and 5% CO2 and validated and tested for mycoplasma. All plasmids and affinity reagents are described in Supplementary Tables 4-5 , respectively and available from Addgene at https://www.addgene.org/browse/article/28243724/.
LINE-1 and RNA:DNA hybrid immunofluorescence […]
induced using 200 µM IPTG overnight at 16°C, purified by sequential Ni-NTA affinity, heparin affinity, and gel filtration, and the monodisperse fraction was concentrated to 7 mg/ml. 150,000 HeLa or U2OS cells were plated on 22 mm glass coverslips in 6-well dishes and transfected with 2 µg of plasmid DNA using Lipofectamine 3000 (Thermo) according to the manufacturer’s instructions, with or without 50 µM d4T. […]
as §1

[3] = test system: L1 retrotransposition reporter in HeLa cells; test: LINE-1 dual luciferase retrotransposition assay in HeLa cells; conditions: Homo sapiens; HeLa cells, stable dual luciferase L1 reporter, normalized to cell viability; n = 3 wells; read-out: IC50

SMILES: Cc1cn([C@H]2C=C[C@@H](CO)O2)c(=O)[nH]c1=O [d4T, stavudine]
- baseline and decitabine-induced IFN production [1]: reduced
- formation of cytosolic RNA:DNA hybrids [2]: ablated; also recorded: inhibited
- IC50 [3]: 3.1 µM
